Experimental data published in patent US12678448B2, “Polymeric carriers for delivery of therapeutic agents” (priority 2020, dated 2026).
Entries after “also recorded” stand apart in the source; their conditions may differ.

What was measured:
[1] = system: PGE2 in CT26 tumor tissue; experiment: PGE2 level in tumor tissue, ELISA; design: species or system BALB/c mice; settings: mouse, in vivo
Experimental: (§1) Prostaglandin E2 level analysis. To analyze the levels of prostaglandin E2 (PGE2) production in different cell lines, the cell culture mediums were collected after overnight incubation. To test PGE2 in the tumor tissues, the harvested tumors were homogenized, and the supernatants were obtained after centrifugation. PGE2 in the supernatants was detected using Abcam Prostaglandin E2 ELISA Kit.

[2] = system: PGE2; experiment: inhibition of PGE2 production by 5-ASA; format: cell-based; settings: 5-ASA concentration 1 mM; read-out: production of PGE2 inhibited
Experimental: as §1

[3] = system: 4T1.2, CT26, MDA-MB-468 and HCT116 tumor cell lines; experiment: MTT cytotoxicity of free 5-ASA, DOX and combination, 48 h; format: cell-based, murine, human; settings: 5-ASA 0~1 mM, all four cell lines
Experimental: In vitro cytotoxicity. […] Cells were seeded in 96-well plates at a density of 5×10^3 cells/well with 100 μL of complete culture medium (DMEM or RPMI 1640 with 10% FBS and 1% streptomycin/penicillin). […] The absorbances of each well were measured at 590 nm and the cell viability was determined via the following formula: (ODtreated−ODblank)/(ODcontrol−ODblank)×100%.

[4] = system: esophageal squamous cell carcinoma; settings: cited from earlier work
[5] = toxicity evaluation (body weight, AST/ALT, histology); format: in vivo, mice
Experimental: In vivo therapeutic study. In vivo antitumor efficacy of DOX-loaded PASA and FASA micelles was tested in syngeneic 4T1.2 mouse breast cancer model and CT26 mouse colon cancer model, respectively. Female BALB/c mice (4-6 weeks) were s.c. inoculated with 4T1.2 or CT26 cells (5×10^5 cells per mouse). When the tumor volume reached ~50 mm^3, mice were randomly divided into eight groups (n=5), and treated via tail vein injection with PBS, DOX, 5-ASA+DOX, Doxil, blank PASA micelles, blank FASA micelles, DOX-loaded PASA micelles or DOX-loaded FASA micelles, respectively once every three days for three times (polymer: 50 mg/kg, DOX: 5 mg/kg, 5-ASA: 20 mg/kg). Tumor sizes were monitored every three days following the initiation of the treatment and calculated by the formula: (Length×Width^2)/2. Body weights were also followed as an indication of toxicity. After completion of the experiment, tumor and major organs were collected for hematoxylin and eosin (H&E) staining. Blood samples were collected for biochemical analysis of alanine transaminase (ALT) and aspartate aminotransferase (AST).
Histopathological Analysis. Tumors and major organs including heart, liver, spleen, lung and kidney were excised and fixed in PBS containing 10% formaldehyde after completion of the in vivo therapy study, followed by embedment in paraffin. The paraffin embedded samples were sectioned into slices at 4 μm using an HM 325 Rotary Microtome. The tissue slices were then subjected to H&E staining for histopathological examination under a Zeiss Axiostar plus Microscope (PA, USA).
ALT and AST assessment. Mouse serum was obtained for blood biochemical assessment. ALT and AST were measured by ALT/SGPT or […] liqui-UV assay kit following manufacturer's protocols.

[6] = system: KB cells; experiment: cellular uptake, fluorescence microscopy and flow cytometry; format: cell-based, human
Experimental: Cellular uptake study. KB, 4T1.2, CT26, MDA-MB-468, HCT116 tumor cells and M2 macrophages were seeded to 6-well plates (3×10^5/well), respectively. After overnight incubation, the culture medium was replaced by fresh medium containing free DOX, PASA/DOX and FASA/DOX micelles with or without 100 μM free folate, respectively, at an equivalent DOX concentration of 6 μg/mL (carrier/DOX ratio: 10/1 (w/w)). After incubation for 30 min at 37° C., cells were washed with cold PBS and fixed with PBS containing 4% (w/v) formaldehyde. Nuclei were then stained by DAPI for 5 min. Cells were washed with cold PBS and observed under fluorescence microscope (BZ-X710, Japan).
Cellular uptake of different DOX formulations was also quantified by flow cytometry. KB tumor cells seeded in 6-well plates (3×10^5/well) were treated with various DOX formulations as described above at a DOX concentration of 6 μg/mL. Following incubation at 37° C. for 30 min, cells were washed with cold PBS, fixed in PBS containing 4% (w/v) formaldehyde, and resuspended in 500 μL PBS for flow cytometry analysis with CyAn ADP Analyzer (Beckman Coulter, Inc.). Fluorescence was examined at an excitation wavelength of 480 nm and an emission wavelength of 570 nm. 2×10^4 events were collected for each sample.

[7] = system: KB cells; experiment: MTT cytotoxicity of DOX formulations, 30 min treatment then 48 h; format: cell-based, human; settings: FASA up to 200 μg/mL
Experimental: In vitro cytotoxicity. Cytotoxicity assay was performed on different cancer cell lines (KB, 4T1.2, CT26, MDA-MB-468 and HCT116). Cells were seeded in 96-well plates at a density of 5×10^3 cells/well with 100 μL of complete culture medium (DMEM or RPMI 1640 with 10% FBS and 1% streptomycin/penicillin).
The cytotoxicity of PASA/DOX and FASA/DOX at a carrier/DOX ratio of 10/1 (w/w) were compared to free DOX and Doxil at various DOX concentrations. FASA control was added to cells at concentrations equivalent to the amounts of carrier in the corresponding DOX formulations. In order to confirm folate-mediated active targeting, free folate (100 μM) was added along with the FASA/DOX micelles. Cells were incubated for 30 min in drug-containing medium and then cultured for another 48 h in fresh medium prior to MTT assay.

[8] = system: 4T1.2 tumor; design: species or system mice; settings: mouse, in vivo, iv
Experimental: Tissue biodistribution. […] The mice were sacrificed and perfused at 24 h post injection. Tumors and major organs including heart, liver, spleen, lung and kidney were sectioned and observed under the fluorescence microscope (BZ-X710, Japan).

[9] = in vitro DOX release by dialysis; format: physicochemical; settings: free drug control
Experimental: In vitro drug release. The release of DOX from DOX-loaded PASA and FASA micelles at different pH was studied using a dialysis method. Briefly, 2 mL of PASA/DOX and FASA/DOX micelles containing 1 mg of DOX and 10 mg of polymer were placed in a dialysis bag (MWCO 3.5 kDa) and immersed into 40 mL of 0.1 M PBS solution containing 0.5% (w/v) Tween 80 at pH 5 and pH 7.4. The experiment was performed in an incubation shaker at 37° C. at 100 rpm. At selected time intervals, 10 μL solution in the dialysis bag and 1 mL medium outside the dialysis bag were withdrawn while same amount of fresh dialysis solution was added for replenishment. The concentration of DOX was examined by fluorescence spectrometry (excitation, 480 nm; emission, 510 to 620 nm). Free DOX was included as control.

[10] = system: 4T1.2 tumor; experiment: in vivo therapeutic study, syngeneic breast cancer model; design: species or system BALB/c mice; settings: 4T1.2 model, treatments on day 0, 3, 6, i.v.
Text: In vivo therapeutic study. […] Female BALB/c mice (4-6 weeks) were s.c. inoculated with 4T1.2 or CT26 cells (5×10^5 cells per mouse). […] Tumor sizes were monitored every three days following the initiation of the treatment and calculated by the formula: (Length×Width^2)/2. Body weights were also followed as an indication of toxicity. After completion of the experiment, tumor and major organs were collected for hematoxylin and eosin (H&E) staining. Blood samples were collected for biochemical analysis of alanine transaminase (ALT) and aspartate aminotransferase (AST).

[11] = system: endometrial cancer cells; settings: cited from earlier work

## Nc1ccc(O)c(C(=O)O)c1 [5-ASA, 5-aminosalicylic acid]
[1]
  level of PGE2 in CT26 tumor tissue: minimal effect
[2]
  inhibition at 1000 µM: 80%
[3]
  anti-proliferation effect / cytotoxicity: did not show any significant anti-proliferation effect; also recorded: minimal cytotoxicity

## Cc1ccc(-c2cc(C(F)(F)F)nn2-c2ccc(S(N)(=O)=O)cc2)cc1 [Celecoxib]
[4]
  effect on 5-FU antitumor effects: enhances 5-Fluorouracil (5-FU) antitumor effects

## COc1cccc2c1C(=O)c1c(O)c3c(c(O)c1C2=O)C[C@@](O)(C(=O)CO)C[C@@H]3O[C@H]1C[C@H](N)[C@H](O)[C@H](C)O1 [DOX, doxorubicin]
[5]; mouse, in vivo
  body weights: slight decrease in body weights on day 9
  liver histology: hepatocellular vacuolation was found
[5]; versus control group
  serum levels of AST / ALT: significantly higher than those in the control group
[6]; 30 min, DOX 6 μg/mL
  cellular uptake: efficiently taken up
[6]; excess free folate 100 μM
  effect of free folate on cellular uptake: no effect
[7]
  cytotoxicity (inhibition of cell proliferation): inhibited the cell proliferation in a dose-dependent manner
[8]
  DOX fluorescence signals in tumor tissues: low level and scattered DOX fluorescence signals
[9]
  diffusion across the dialysis membrane: rapidly diffused across the dialysis membrane
[10]
  antitumor activity (tumor growth): modest antitumor activity

## CCc1cccc2c3c([nH]c12)C(CC)(CC(=O)O)OCC3 (centres unmarked) [Etodolac]
[11]
  inhibition of cancer cells: dose dependent inhibition of endometrial cancer cells
